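How tested: cells in 96-well plates exposed to compound for 48 hours at five concentrations. TGI: concentration producing complete growth inhibition.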
Assays:
Assay in all cases: DTP human tumour cell line panel, 48 h
[1] = tested on: M14 melanoma
[2] = tested on: HCC-2998 colon
[3] = tested on: HCT-116 colon
[4] = tested on: SW-620 colon
[5] = tested on: SK-MEL-5 melanoma
[6] = tested on: COLO 205 colon
[7] = tested on: NCI-H23 lung
[8] = tested on: NCI-H226 lung
[9] = tested on: CCRF-CEM leukemia
[10] = tested on: SNB-75 CNS
[11] = tested on: HCT-15 colon
[12] = tested on: RPMI-8226 leukemia
[13] = tested on: 786-0 renal
[14] = tested on: A549 NSCLC
[15] = tested on: SN12C renal
[16] = tested on: UO-31 renal
[17] = tested on: NCI-H460 lung
[18] = tested on: MDA-N
[19] = tested on: HS 578T breast
[20] = tested on: T-47D breast
[21] = tested on: TK-10 renal
[22] = tested on: HT29 colon
[23] = tested on: K-562 leukemia
[24] = tested on: SK-MEL-2 melanoma
[25] = tested on: KM12 colon
[26] = tested on: U251 CNS
[27] = tested on: OVCAR-5 ovarian
[28] = tested on: PC-3 prostate
[29] = tested on: SF-295 CNS
[30] = tested on: MDA-MB-231 breast
[31] = tested on: NCI/ADR-RES ovarian
[32] = tested on: NCI-H522 lung
[33] = tested on: MOLT-4 leukemia
[34] = tested on: SK-MEL-28 melanoma
[35] = tested on: OVCAR-3 ovarian
[36] = tested on: BT-549 breast
[37] = tested on: CAKI-1 renal
[38] = tested on: LOX IMVI melanoma
[39] = tested on: SF-268 CNS
[40] = tested on: UACC-62 melanoma
[41] = tested on: ACHN renal
[42] = tested on: UACC-257 melanoma
[43] = tested on: SR leukemia
[44] = tested on: OVCAR-8 ovarian
[45] = tested on: RXF 393 renal
[46] = tested on: MDA-MB-435
[47] = tested on: SK-OV-3 ovarian
[48] = tested on: IGROV1 ovarian
[49] = tested on: HL-60(TB) leukemia
[50] = tested on: HOP-62 NSCLC
[51] = tested on: SNB-19 CNS
[52] = tested on: MALME-3M melanoma
[53] = tested on: DU-145 prostate
[54] = tested on: SF-539 CNS
[55] = tested on: MCF7 breast
[56] = tested on: A498 renal

Measured: TGI

c1ccc([P+](c2ccccc2)(c2ccccc2)c2ccc([P+](c3ccccc3)(c3ccccc3)c3ccccc3)c3ccccc23)cc1
> 100 µM: all assays above
